Laboratory results reported in US10189786B2, “Antibacterial compounds” (Duke University, priority 2013, dated 2019).
Converted amounts (≈) assume the structure as drawn.

Key:
E. coli W3110 = experiment: microbe, parasite or virus in culture; format: cell-based; details: wild-type E. coli W3110, 22 hours at 37° C., MTT; for MIC: Escherichia coli, W3110, 22 h
N. gonorrhoeae H041 = experiment: Disk diffusion assay, N. gonorrhoeae H041; format: cell-based; details: disc 6 mm; for zone of inhibition at 0.2 µg/disc / zone of inhibition at 2 µg/disc / zone of inhibition at 20 µg/disc: Neisseria gonorrhoeae, read-out: diameter of the growth inhibition, H041; for zone of inhibition at 0.2 µg/disc: H041, 0.2 μg per disc; for zone of inhibition at 2 µg/disc: H041, 2.0 μg per disc; for zone of inhibition at 20 µg/disc: H041, 20 μg per disc
Experimental: (§1) An assay was performed on two strains of Acinetobacter Baumannii: antibiotic susceptible strain (Sus. A.b. Isolate), and multidrug-resistant strains (MDR A.b. Isolate). […] Activity is measured as the diameter (in mm) of the growth inhibition.

E. coli W3110PA = experiment: microbe, parasite or virus in culture; format: cell-based; details: E. coli with native lpxC replaced by that of P. aeruginosa; for MIC: Escherichia coli, W3110PA
P. aeruginosa PAO1 = experiment: MIC assay, P. aeruginosa PAO1; format: cell-based; details: for MIC: Pseudomonas aeruginosa, PAO1, P. aeruginosa PAO1
[1] = tested on: N. gonorrhoeae 35/02 (drug-resistant strain); experiment: Disk diffusion assay, N. gonorrhoeae 35/02; format: cell-based; details: disc 6 mm; for zone of inhibition at 0.2 µg/disc / zone of inhibition at 2 µg/disc / zone of inhibition at 20 µg/disc: Neisseria gonorrhoeae, read-out: diameter of the growth inhibition, 35/02; for zone of inhibition at 0.2 µg/disc: 0.2 μg per disc
Experimental: as §1

[2] = tested on: N. gonorrhoeae FA19 (a drug-sensitive strain); experiment: Disk diffusion assay, N. gonorrhoeae FA19; format: cell-based; details: disc 6 mm; for zone of inhibition at 0.2 µg/disc / zone of inhibition at 2 µg/disc / zone of inhibition at 20 µg/disc: Neisseria gonorrhoeae, read-out: diameter of the growth inhibition, FA19
Experimental: as §1

[3] = tested on: N. gonorrhoeae F89 (high-level cefixime and ceftriaxone resistance); experiment: Disk diffusion assay, N. gonorrhoeae F89; format: cell-based; details: disc 6 mm; for zone of inhibition at 0.2 µg/disc / zone of inhibition at 2 µg/disc / zone of inhibition at 20 µg/disc: Neisseria gonorrhoeae, read-out: diameter of the growth inhibition, F89
Experimental: as §1

E. coli W3110NG = experiment: MIC assay, E. coli W3110NG; format: cell-based; details: Escherichia coli
[4] = tested on: F. novicida U112 (FNU112); experiment: microbe, parasite or virus in culture; format: cell-based; details: Francisella tularensis, read-out: MIC FNU112
N. gonorrhoeae (FA35/02) [5] = experiment: MIC assay, N. gonorrhoeae 35/02; format: cell-based; details: drug-resistant strain; for MIC: Neisseria gonorrhoeae
Experimental: MICs are determined according to the NCCLS protocol using 96-well plates. Briefly, diluted bacterial cells (10^6 cells/mL) are added into each well of the 96-well plates containing LB medium with 5% DMSO and various concentrations of the compound of disclosure. After incubation of the plates for 22 hours at 37° C., [4,5-dimethylthiazol-2-yl]-2,5-diphenyltetrazolium bromide solution (MTT) is added (final concentration, 0.2 mg/mL) and incubated at 37° C. for another 3 hrs. MIC is determined as the lowest concentration of an antibiotic that prevented color change (yellow to purple).
The antibiotic activities of several exemplary compounds useful in the methods of the disclosure are evaluated by measurements of minimum inhibitory concentrations (MICs) using two N. gonorrhoeae strains: FA19 (a drug-sensitive strain) and 35/02 (drug-resistant strain.) FA19 is an isolate from uncomplicated infection and was lyophilized in 1962. […] The strain is being sequenced to elucidate the mechanisms involved in high-level chromosomally mediated resistance.

N. gonorrhoeae (FA35/02) [6] = details: description of the resistance of strain 35/02; cited from earlier work
[7] = 0.2 μg per disc, listed as 3 (Isomer B)

Compound	MIC (E. coli W3110) [µg/mL]	zone of inhibition at 0.2 µg/disc (N. gonorrhoeae H041) [mm]	zone of inhibition at 2 µg/disc (N. gonorrhoeae H041) [mm]	zone of inhibition at 20 µg/disc (N. gonorrhoeae H041) [mm]	MIC (E. coli W3110PA) [µg/mL]	MIC (P. aeruginosa PAO1) [µg/mL]	zone of inhibition at 0.2 µg/disc [1] [mm]	zone of inhibition at 2 µg/disc ([1]; 2.0 μg per disc) [mm]	zone of inhibition at 20 µg/disc ([1]; 20 μg per disc) [mm]	zone of inhibition at 0.2 µg/disc ([2]; 0.2 μg per disc) [mm]	zone of inhibition at 2 µg/disc ([2]; 2.0 μg per disc) [mm]	zone of inhibition at 20 µg/disc ([2]; 20 μg per disc) [mm]	zone of inhibition at 0.2 µg/disc ([3]; 0.2 μg per disc) [mm]	zone of inhibition at 2 µg/disc ([3]; 2.0 μg per disc) [mm]	zone of inhibition at 20 µg/disc ([3]; 20 μg per disc) [mm]	MIC [4] [µg/mL]	MIC (N. gonorrhoeae (FA35/02) [5]) [µg/mL]	also measured
CC(CCc1ccc(-c2ccccc2)cc1)(C(=O)NO)C(C)(O)C(F)F (single isomer, unassigned) [Example 3 Isomer B, 2-(2-(biphenyl-4-yl)ethyl)-4,4-difluoro-N,3-dihydroxy-2,3-dimethylbutanamide]																		MIC E. coli W3110 (E. coli W3110): >50 µg/mL; diameter of the growth inhibition, H041 (N. gonorrhoeae H041; [7]): 8 mm; diameter of the growth inhibition, H041 (N. gonorrhoeae H041; 2.0 μg per disc): 10 mm; diameter of the growth inhibition, H041 (N. gonorrhoeae H041; 20 μg per disc): 20 mm; MIC E. coli W3110PA (E. coli W3110PA; unit from b306, listed as 3 Isomer B): 25 µg/mL (≈ 68.8 µM); MIC P. aeruginosa PAO1 (P. aeruginosa PAO1; P. aeruginosa PAO1, unit from b306, listed as 3 Isomer B): 25 µg/mL (≈ 68.8 µM); diameter of the growth inhibition, 35/02 ([1]; 2.0 μg per disc): 8 mm; diameter of the growth inhibition, 35/02 ([1]; 20 μg per disc): 19 mm; diameter of the growth inhibition, FA19 [2, 7]: 0 mm; diameter of the growth inhibition, FA19 ([2]; 2.0 μg per disc): 15 mm; diameter of the growth inhibition, FA19 ([2]; 20 μg per disc): 23 mm; diameter of the growth inhibition, F89 [3, 7]: 10 mm; diameter of the growth inhibition, F89 ([3]; 2.0 μg per disc): 20 mm; diameter of the growth inhibition, F89 ([3]; 20 μg per disc): 27 mm
C[C@@](O)(C(F)F)[C@H](NCc1ccc(-c2ccccc2)cc1)C(=O)NO [Example 5, (2S,3S)-2-(biphenyl-4-ylmethylamino)-4,4-difluoro-N,3-dihydroxy-3-methylbutanamide]	25 (≈ 71.4 µM)	7	17	25	3.1 (≈ 8.85 µM)	3.1 (≈ 8.85 µM)	0	16	24	0	25	29	8	27	36			
C[C@@H](O)[C@H](NCc1ccc(-c2ccccc2)cc1)C(=O)NO [Example 9, (2S,3R)-2-(biphenyl-4-ylmethylamino)-N,3-dihydroxybutanamide]	25 (≈ 83.2 µM)				4.8 (≈ 16 µM)	5.4 (≈ 18 µM)										> 5		MIC (E. coli W3110NG): > 50 µg/mL
CC(NCCCc1ccc(-c2ccccc2)cc1)(C(=O)NO)C(C)(O)C(F)F (stereo not drawn) [Example 10, 2-(3-(biphenyl-4-yl)propylamino)-4,4-difluoro-N,3-dihydroxy-2,3-dimethylbutanamide]	61.2 (≈ 156 µM)	13	20	27		2.5 (≈ 6.37 µM)	15	20	27	17	25 to 27	30	20	28	35		0.06 (≈ 0.153 µM)	
C[C@@](O)(C(F)F)[C@H](NCCCc1ccc(-c2ccccc2)cc1)C(=O)NO [Example 11, (2S,3S)-2-(3-(biphenyl-4-yl)propylamino)-4,4-difluoro-N,3-dihydroxy-3-methylbutanamide]	1.25 (≈ 3.3 µM)	11	20	27	1.25 (≈ 3.3 µM)	2.5 (≈ 6.61 µM)	14	23	26	18	25	30	19	26	33		0.03 to 0.06 (≈ 0.0793 to 0.159 µM)	MIC N. gonorrhoeae (FA35/02) (N. gonorrhoeae (FA35/02) [5]): 0.03 µg/mL (≈ 0.0793 µM)
COc1ccc(-c2ccn(CCC(C)(C(=O)NO)S(C)(=O)=O)c(=O)c2)cc1 (stereo not drawn) [Example 13, N-hydroxy-4-(4-(4-methoxyphenyl)-2-oxopyridin-1 (2H)-yl)-2-methyl-2-(methylsulfonyl)butanamide]	< 0.78				< 0.78	< 0.78										1.25 (≈ 3.17 µM)		MIC (E. coli W3110NG): 1.25 µg/mL (≈ 3.17 µM)
C[C@@](O)(C(F)F)[C@H](NC(=O)CCc1ccc(-c2ccccc2)cc1)C(=O)NO [Example 14, (2S,3S)-2-(3-(biphenyl-4-yl)propanamido)-4,4-difluoro-N,3-dihydroxy-3-methylbutanamide]	6.25 (≈ 15.9 µM)	7	20	26	12.5 (≈ 31.9 µM)		14	22	28	18	27	30	18	27	34	12.5 (≈ 31.9 µM)	0.25 (≈ 0.637 µM)	
CC(CCc1ccc(-c2ccccc2)cc1)(C(=O)NO)S(C)(=O)=O (stereo not drawn) [Example 133]	3.13 (≈ 9.01 µM)				0.38 (≈ 1.09 µM)	0.39 (≈ 1.12 µM)										3.13 (≈ 9.01 µM)		
CO/N=C(\C(=O)N[C@@H]1C(=O)N2C(C(=O)O)=C(CSc3nc(=O)c(=O)[nH]n3C)CS[C@H]12)c1csc(N)n1 [ceftriaxone]																		MIC of reference antibiotics against N. gonorrhoeae 35/02 (N. gonorrhoeae (FA35/02) [6]): 0.12 µg/mL
penicillin																		MIC of reference antibiotics against N. gonorrhoeae 35/02 (N. gonorrhoeae (FA35/02) [6]): 6 µg/mL
